This assay can be described thus: Inactivation of DXR.

SMILES strings stand for the structures. Activity calls are given as the source filed them. The calls are words filed in the database; no cut-off is given here.

In the case of `C[C@@](CO)(CF)[C@H](O)COP(=O)(O)O`, the outcome was Active.

The record behind these values is ChEMBL document CHEMBL1142392, “Synthesis and analysis of a fluorinated product analogue as an inhibitor for 1-deoxy-D-xylulose 5-phosphate reductoisomerase” (Bioorg Med Chem Lett, 2008).
